Measurements from US7157430B2, “(Substituted)acyl dipeptidyl inhibitors of the ICE/CED-3 family of cysteine proteases” (Idun Pharmaceuticals, Inc., priority 1998, dated 2007).

What was measured:
Type in all cases: biochemical
Details in all cases: continuous assay 60 min, reaction initiated by adding enzyme
mICE = target: T1, mICE (Mus musculus, UniProt P29452); assay: Dissociation constant Ki and irreversible rate constant k3 for irreversible inhibitors, ICE
T1 sequence (P29452 123-296 limits assumed): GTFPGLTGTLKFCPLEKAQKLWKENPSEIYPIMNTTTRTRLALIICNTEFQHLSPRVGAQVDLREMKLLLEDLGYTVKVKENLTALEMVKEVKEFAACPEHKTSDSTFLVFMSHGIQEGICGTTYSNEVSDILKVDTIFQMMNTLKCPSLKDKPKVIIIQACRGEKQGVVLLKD
T1 sequence (P29452 315-402 limits assumed): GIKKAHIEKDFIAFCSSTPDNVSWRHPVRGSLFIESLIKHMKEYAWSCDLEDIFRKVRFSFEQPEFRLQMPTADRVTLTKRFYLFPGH
Text: (§1) For the irreversible inhibition of a ICE/ced-3 Family Protease enzyme with a competitive irreversible inhibitor; using the model represented by the following formulas: […]
(§2) The product formation at time t may be expressed as:
(§3) [formula] where E, I, EI and E-I denote the active enzyme, inhibitor, non-covalent enzyme-inhibitor complex and covalent enzyme-inhibitor adduct, respectively. The Ki value is the overall dissociation constant of the reversible binding steps, and k3 is the irreversible rate constant. The [S] and Ks values are the substate concentration and dissociation constant of the substrate bound to the enzyme, respectively. [E]^T is the total enzyme concentration.
(§4) The above equations were used to determine the Ki and k3 values of a given inhibitor bound to a ICE/ced-3 family protease. Thus, a continuous assay was run for sixty minutes at various concentrations of the inhibitor and the substrate. The assay was formulated essentially the same as described above for generating the data in Table 1, except that the reaction was initiated by adding the enzyme to the substrate-inhibitor mixture. The Ki and k3 values were obtained by simulating the product AMC formation as a function of time according to Equation 1.
(§5) The reference compound for this assay was Cbz-ValAlaAsp-CH2F and the values are denoted in Table 2 as “Reference”. The Ki values in Table 2 are in micromolar (μM). The k3/Ki values are in moles^−1 seconds^−1 (M^−1s^−1).

CPP32 = target: T2, CPP32 (Homo sapiens, UniProt P42574); assay: Dissociation constant Ki and irreversible rate constant k3 for irreversible inhibitors, CPP32
T2 sequence (P42574 29-175 limits assumed): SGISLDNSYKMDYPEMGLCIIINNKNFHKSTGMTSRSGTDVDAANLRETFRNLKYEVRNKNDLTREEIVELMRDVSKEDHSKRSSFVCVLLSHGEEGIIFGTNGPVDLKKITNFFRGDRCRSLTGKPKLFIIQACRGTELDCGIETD
T2 sequence (P42574 176-277 limits assumed): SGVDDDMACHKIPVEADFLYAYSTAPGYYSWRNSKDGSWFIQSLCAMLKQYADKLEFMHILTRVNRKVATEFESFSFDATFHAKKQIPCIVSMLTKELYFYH
Text: as §1, §2, §3, §4, §5

MCH-2 = target: T3, MCH-2 (Homo sapiens, UniProt P55212); assay: Dissociation constant Ki and irreversible rate constant k3 for irreversible inhibitors, Mch2
T3 sequence (P55212 24-179 limits assumed): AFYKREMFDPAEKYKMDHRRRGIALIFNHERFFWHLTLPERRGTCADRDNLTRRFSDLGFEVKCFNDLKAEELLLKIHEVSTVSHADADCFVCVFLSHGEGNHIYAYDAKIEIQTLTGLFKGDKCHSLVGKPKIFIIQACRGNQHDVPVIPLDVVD
T3 sequence (P55212 194-293 limits assumed): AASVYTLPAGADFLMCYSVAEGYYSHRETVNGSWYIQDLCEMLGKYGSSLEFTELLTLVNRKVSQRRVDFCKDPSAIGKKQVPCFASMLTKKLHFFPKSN
Text: as §1, §2, §3, §4, §5

MCH-5 = MCH-5 (Homo sapiens, UniProt Q14790); assay: Dissociation constant Ki and irreversible rate constant k3 for irreversible inhibitors, Mch5
MCH-5, sequence (Q14790 217-374 limits assumed, species assumed): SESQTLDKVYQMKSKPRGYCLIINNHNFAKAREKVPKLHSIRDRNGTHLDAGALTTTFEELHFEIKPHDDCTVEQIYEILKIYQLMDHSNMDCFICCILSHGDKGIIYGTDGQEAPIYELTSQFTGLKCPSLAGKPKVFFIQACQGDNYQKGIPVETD
MCH-5, sequence (Q14790 385-479 limits assumed, species assumed): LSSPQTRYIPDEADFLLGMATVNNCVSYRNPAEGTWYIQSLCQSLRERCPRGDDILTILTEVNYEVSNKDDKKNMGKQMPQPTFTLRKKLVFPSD
Text: as §1, §2, §3, §4, §5

| SMILES | Ki (mICE) [µM] | mICE k3/Ki (mICE) | CPP32 k3/Ki (CPP32) | Ki (CPP32) [µM] | Ki (MCH-2) [µM] | MCH-2 k3/Ki (MCH-2) | Ki (MCH-5) [µM] | MCH-5 k3/Ki (MCH-5) |
| --- | --- | --- | --- | --- | --- | --- | --- | --- |
| CC(C)[C@H](NC(=O)COc1cccc2ccccc12)C(=O)N[C@@H](CC(=O)O)C(=O)COc1cc(F)cc(F)c1 [Example 73] | 0.592 | 2,170 M^−1s^−1 | 9,240 M^−1s^−1 | 0.106 | 0.862 | 110 M⁻¹ s⁻¹ | 1.03 | 150 M⁻¹ s⁻¹ |
| CC(C)[C@H](NC(=O)COc1cccc2ccccc12)C(=O)N[C@@H](CC(=O)O)C(=O)COc1ccc(F)c(F)c1F [Example 74] | 0.28 | 11,900 M^−1s^−1 | 35,800 M^−1s^−1 | 0.135 | 1.25 | 250 M⁻¹ s⁻¹ | 1.08 | 770 M⁻¹ s⁻¹ |
| CC(C)[C@H](NC(=O)COc1cccc2ccccc12)C(=O)N[C@@H](CC(=O)O)C(=O)COc1cc(F)cc(F)c1F [Example 75] | 0.147 | 14,700 M^−1s^−1 | 60,100 M^−1s^−1 | 0.061 | 0.221 | 1,510 M^−1s^−1 | 0.794 | 1,470 M^−1s^−1 |
| CC(C)[C@H](NC(=O)COc1cccc2ccccc12)C(=O)N[C@@H](CC(=O)O)C(=O)COc1cc(F)c(F)cc1F [Example 77] | 0.262 | 11,500 M^−1s^−1 | 24,400 M^−1s^−1 | 0.123 | 0.526 | 630 M⁻¹ s⁻¹ | 1.5 | 670 M⁻¹ s⁻¹ |
| CC(C)[C@H](NC(=O)COc1cccc2ccccc12)C(=O)N[C@@H](CC(=O)O)C(=O)COc1c(F)c(F)c(F)c(F)c1F [Example 80] | 0.926 | 4,700 M^−1s^−1 | 56,600 M^−1s^−1 | 0.099 | 0.023 | 13,600 M^−1s^−1 | 0.146 | 8,040 M^−1s^−1 |
| CC(C)[C@H](NC(=O)COc1cccc2ccccc12)C(=O)N[C@@H](CC(=O)O)C(=O)COP(C)(C)=O [Example 105] | 0.413 | 18,000 M^−1s^−1 | 44,900 M^−1s^−1 | 0.341 | 0.233 | 6,090 M^−1s^−1 | 0.16 | 3,700 M^−1s^−1 |
| CCCCCCP(=O)(OCC(=O)[C@H](CC(=O)O)NC(=O)[C@@H](NC(=O)COc1cccc2ccccc12)C(C)C)c1ccccc1 (stereo partly shown) [Example 106] | 0.167 | 42,500 M^−1s^−1 | 155,000 M^−1s^−1 | 0.048 | 0.08 | 52,900 M^−1s^−1 | 0.134 | 10,500 M^−1s^−1 |
| CC(C)[C@H](NC(=O)COc1cccc2ccccc12)C(=O)N[C@@H](CC(=O)O)C(=O)COP(C)(=O)c1ccc(F)cc1 (stereo partly shown) [Example 108] | 0.147 | 37,900 M^−1s^−1 | 140,000 M^−1s^−1 | 0.041 | 0.037 | 60,400 M^−1s^−1 | 0.105 | 9,890 M^−1s^−1 |
| CCCCCCP(=O)(OCC(=O)[C@H](CC(=O)O)NC(=O)[C@@H](NC(=O)COc1cccc2ccccc12)C(C)C)c1ccc(F)cc1 (stereo partly shown) [Example 109] | 0.453 | 15,500 M^−1s^−1 | 48,300 M^−1s^−1 | 0.136 | 0.119 | 16,800 M^−1s^−1 | 0.219 | 4,070 M^−1s^−1 |
| Cc1cc(OCC(=O)[C@H](CC(=O)O)NC(=O)[C@@H](NC(=O)COc2cccc3ccccc23)C(C)C)cc(=O)o1 [Example 111] | 0.308 | 6,500 M^−1s^−1 | 21,900 M^−1s^−1 | 0.22 | 2.16 | 230 M⁻¹ s⁻¹ | 2.87 | 170 M⁻¹ s⁻¹ |
| CC(C)[C@H](NC(=O)COc1cccc2ccccc12)C(=O)N[C@@H](CC(=O)O)C(=O)COc1c(-c2ccccc2)oc2ccccc2c1=O [Example 115] | 0.324 | 8,740 M^−1s^−1 | 127,000 M^−1s^−1 | 0.046 | 0.054 | 0 M⁻¹ s⁻¹ | 4.67 | 0 M⁻¹ s⁻¹ |
| CC(C)[C@H](NC(=O)COc1cccc2ccccc12)C(=O)N[C@@H](CC(=O)O)C(=O)COc1ccnc(C(F)(F)F)n1 [Example 121] | 0.242 | 24,800 M^−1s^−1 | 114,000 M^−1s^−1 | 0.047 | 0.12 | 5,150 M^−1s^−1 | 0.276 | 3,200 M^−1s^−1 |
| Cc1nnc(SCC(=O)[C@H](CC(=O)O)NC(=O)[C@@H](NC(=O)COc2cccc3ccccc23)C(C)C)s1 [Example 128] | 0.213 | 5,480 M^−1s^−1 | 5,240 M^−1s^−1 | 0.254 | 2.41 | 83 M⁻¹ s⁻¹ | 4.48 | 0 M⁻¹ s⁻¹ |

The next compounds have a lower Ki (mICE) than those just listed; values first:

| Ki (mICE) [µM] | mICE k3/Ki (mICE) | CPP32 k3/Ki (CPP32) | Ki (CPP32) [µM] | Ki (MCH-2) [µM] | MCH-2 k3/Ki (MCH-2) | Ki (MCH-5) [µM] | MCH-5 k3/Ki (MCH-5) | SMILES |
| --- | --- | --- | --- | --- | --- | --- | --- | --- |
| 0.137 | 20,700 M^−1s^−1 | 114,000 M^−1s^−1 | 0.038 | 0.081 | 5,140 M^−1s^−1 | 0.202 | 9,080 M^−1s^−1 | CC(C)[C@H](NC(=O)COc1cccc2ccccc12)C(=O)N[C@@H](CC(=O)O)C(=O)COc1c(F)cc(F)cc1F [Example 78] |
| 0.133 | 50,600 M^−1s^−1 | 151,000 M^−1s^−1 | 0.054 | 0.037 | 50,200 M^−1s^−1 | 0.059 | 15,500 M^−1s^−1 | CC(C)[C@H](NC(=O)COc1cccc2ccccc12)C(=O)N[C@@H](CC(=O)O)C(=O)COP(C)(=O)c1ccccc1 (stereo partly shown) [Example 104] |
| 0.091 | 77,500 M^−1s^−1 | 268,000 M^−1s^−1 | 0.042 | 0.006 | 78,900 M^−1s^−1 | 0.034 | 30,200 M^−1s^−1 | CC(C)[C@H](NC(=O)COc1cccc2ccccc12)C(=O)N[C@@H](CC(=O)O)C(=O)COc1c(F)c(F)cc(F)c1F [Example 79] |
| 0.09 | 47,100 M^−1s^−1 | 188,000 M^−1s^−1 | 0.063 | 0.058 | 81,700 M^−1s^−1 | 0.081 | 17,000 M^−1s^−1 | CC(C)[C@H](NC(=O)COc1cccc2ccccc12)C(=O)N[C@@H](CC(=O)O)C(=O)COc1c(F)ccc(F)c1F [Example 76] |
| 0.066 | 106,000 M^−1s^−1 | 424,000 M^−1s^−1 | 0.014 | 0.021 | 187,000 M^−1s^−1 | 0.048 | 27,800 M^−1s^−1 | CC(C)[C@H](NC(=O)COc1cccc2ccccc12)C(=O)N[C@@H](CC(=O)O)C(=O)COP(=O)(Cc1ccccc1)c1ccccc1 (stereo partly shown) [Example 107] |
| 0.063 | 143,000 M^−1s^−1 | 351,000 M^−1s^−1 | 0.038 | 0.038 | 39,700 M^−1s^−1 | 0.025 | 59,300 M^−1s^−1 | CC(C)[C@H](NC(=O)COc1cccc2ccccc12)C(=O)N[C@@H](CC(=O)O)C(=O)COP(=O)(c1ccccc1)c1ccccc1 [Example 103] |
| 0.059 | 64,900 M^−1s^−1 | 272,000 M^−1s^−1 | 0.035 | 0.015 | 150,000 M^−1s^−1 | 0.043 | 18,800 M^−1s^−1 | CC(C)[C@H](NC(=O)COc1cccc2ccccc12)C(=O)N[C@@H](CC(=O)O)C(=O)COP(C)(=O)c1cccc2ccccc12 (stereo partly shown) [Example 110] |
